Series [1] is described as follows: Hepatocyte stability, beagle dog. Type of series: in vitro ADME. The following applies: 0.5 million cells/ml; for half-life at 2 μM: beagle dog hepatocytes; for CLint scaled at 2 μM: beagle, dog, hepatocytes. The protocol:
(§1) In this study, human, cynomolgus monkey, beagle dog, wistar hannover rat, and balb/c mouse hepatocyle stability was determined.

Series [2] can be described thus: Plasma stability, beagle dog plasma (K2EDTA). Type of series: in vitro ADME. Conditions: 2 μM; for % Remaining at T120 / half-life at 2 μM: beagle dog plasma, anti-coagulant K2-EDTA; for % Remaining at T120: 120 min; for half-life at 2 μM: read-out: T1/2. The protocol:
(§2) Individual stock solutions of propantheline and lovastatin were prepared at 10 mM in DMSO and were further diluted to 2 mM with DMSO.
(§3) Frozen matrices (Balb/c mouse, Wistar Han rat, Beagle dog, and human plasma containing K2EDTA as anti-coagulant) were thawed and centrifuged at 3100 rpm for 10 minutes at 4° C. to remove particulates. The lipid layer was then removed, and the supernatant was transferred to a new tube without disturbing the pellet. After the matrices were incubated at 37° C. for at least 10 minutes, the pH of each matrix was adjusted to pH 7.4, using 10% phosphoric acid or 1N sodium hydroxide as necessary. Test and control article stock solutions were spiked (2 μL) into matrix (1.998 mL) and mixed to final assay concentration of […]. Duplicate 30-μL aliquots of spiked plasma were transferred to matrix tubes in 96-well plate immediately after spiking for timepoints of 0, 30, 60, 120, 240, and 360 minutes. These tubes were then incubated at 37° C. with shaking and at each timepoint, the corresponding tubes containing samples were quenched with 180 μL of cold acetonitrile containing the internal standards. The quenched samples were vortex-mixed briefly and stored refrigerated. After the final time point (360 minutes), the plates with all quenched samples were vortex-mixed for 10 minutes and then centrifuged at 3100 rpm for 10 minutes at 4° C. to sediment the precipitated protein. The supernatant (50 μL) was transferred to a clean 96-well plate and diluted with 100 μL of water. The plates were stored refrigerated until analysis.
(§4) Data Analysis: Peak area ratios for IS-normalized test article and control article counts were used to calculate the percent remaining relative to the time zero (T0) value. As appropriate, results were plotted and further analyzed to calculate half-life (T1/2) values.
(§5) Mean peak area ratios were used to calculate the % remaining relative to the T0 value:
(§6) In this study, human, cynomolgus monkey, beagle dog, wistar hannover rat, and balb/c plasma stability was determined. Table 28 describes the results of the human plasma stability at 2 μM concentration and anti-coagulant K2-EDTA from 10 to 120 min. Table 29 describes the results of the cynomolgus monkey plasma stability at 2 μM concentration and anti-coagulant K2-EDTA. Table 30 describes the results of the beagle dog plasma stability at 2 μM concentration and anti-coagulant K2-EDTA. Table 31 describes the results of the wistar hannover rat plasma stability at 2 μM concentration and anti-coagulant K2-EDTA. Table 32 describes the results of the balb/c plasma stability at 2 μM concentration and anti-coagulant K2-EDTA.

Series [3] can be described thus: Plasma stability, rat plasma (Wistar Han / wistar hannover; Table 5 head SD Rat). Conditions: wistar hannover rat plasma, 2 μM, anti-coagulant K2-EDTA; for half-life at 2 μM: pH 7.4, read-out: T1/2; for % Remaining at T120: 120 min. Type of series: in vitro ADME. The protocol:
as §2, §3, §4, §5, §6

The nature of series [4]: Plasma stability, mouse plasma (Balb/c; Table 5 head CD-1 Mouse). Conditions: balb/c plasma, 2 μM, anti-coagulant K2-EDTA; for % Remaining at T120: 120 min; for half-life at 2 μM: mouse, pH 7.4, read-out: T1/2. Type of series: in vitro ADME. The protocol: as §2, §3, §4, §5, §6
Another series can be described thus: PAMPA (pH 7.4). Type of series: in vitro ADME. Conditions: PAMPA.
Series [5] in a line: Hepatocyte stability, balb/c mouse. In kind it is in vitro ADME. Conditions: 0.5 million cells/ml; for CLint scaled at 2 μM: BALB/c, mouse, hepatocytes; for half-life at 2 μM: balb/c mouse hepatocytes. The protocol:
as §1

A short description of series [6]: Plasma stability, human plasma (K2EDTA). Type of series: in vitro ADME. Conditions: 2 μM; for % Remaining at T120 / half-life at 2 μM: human plasma, anti-coagulant K2-EDTA; for % Remaining at T120: 120 min; for half-life at 2 μM: 10 to 120 min, read-out: T1/2. The protocol: as §2, §3, §4, §5, §6
Series [7] in a line: Plasma stability, cynomolgus monkey plasma (K2-EDTA). Type of series: in vitro ADME. The following applies: for % Remaining at T120: 2 μM, anti-coagulant K2-EDTA, 120 min; for half-life at 2 μM: plasma (K2EDTA), pH 7.4, anti-coagulant K2-EDTA. The protocol: as §2, §3, §4, §5, §6
Series [8] in a line: Hepatocyte stability, wistar hannover rat. In kind it is in vitro ADME. The following applies: 0.5 million cells/ml; for CLint scaled at 2 μM: Wistar Hannover, rat, hepatocytes; for half-life at 2 μM: wistar hannover rat hepatocytes. The protocol: as §1
The test system of another series is human hepatocytes. The series is described as follows: Hepatocyte stability, human. The following applies: 2 μM, 0.5 million cells/ml, 120 min. In kind it is in vitro ADME. The protocol:
as §1

Another series deals with CYP3A4 (Homo sapiens, UniProt P08684). The series is described as follows: CYP450 panel inhibition in human liver microsomes, 3A4 (midazolam / testosterone). The following applies: 10 μM; for CYP-3A4 (Midazolam) mean percentage CYP inhibition: substrate midazolam; for CYP-3A4 (Testosterone) mean percentage CYP inhibition: substrate testosterone.
The mark [9] stands for this setting: read-out: CLint (L/hr/kg) (converted).

We go through 6 molecules from patent US20250179057A1, “MEK IMMUNE ONCOLOGY INHIBITORS AND THERAPEUTIC USES THEREOF” (Immuneering Corporation, priority 2022, published 2025).

One may read the Papp as the rate of passage across a membrane or cell layer, normalised by area and donor concentration.

Counter-ions that a name gives are not always drawn. A value given as a limit tells only on which side of the number the result lay.

CYP3A4, sequence (P08684 whole entry): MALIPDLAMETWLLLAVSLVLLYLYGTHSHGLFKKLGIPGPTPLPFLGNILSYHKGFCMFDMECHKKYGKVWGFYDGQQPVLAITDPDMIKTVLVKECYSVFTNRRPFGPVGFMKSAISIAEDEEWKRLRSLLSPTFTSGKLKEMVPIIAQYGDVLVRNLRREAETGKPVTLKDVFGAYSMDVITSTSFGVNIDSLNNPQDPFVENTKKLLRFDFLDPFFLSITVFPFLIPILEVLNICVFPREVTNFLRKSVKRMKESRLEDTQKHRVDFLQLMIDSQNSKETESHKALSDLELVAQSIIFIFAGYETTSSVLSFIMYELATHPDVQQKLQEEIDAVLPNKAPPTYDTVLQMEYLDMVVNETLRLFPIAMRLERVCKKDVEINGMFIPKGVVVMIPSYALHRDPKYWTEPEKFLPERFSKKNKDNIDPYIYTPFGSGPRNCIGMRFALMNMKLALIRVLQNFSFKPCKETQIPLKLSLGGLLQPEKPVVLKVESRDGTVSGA
Method for PAMPA (pH 7.4): Each stock solution was diluted to 50 M in pH 7.4 Prisma HT buffer (pION) and 200 μl was added to each well of the donor plate in triplicate. The polyvinylidene fluoride (PVDF, 0.45 μm) filter membrane on the acceptor plate was coated with 5 μl gastrointestinal tract lipid formulation (GIT-0, pION) and to each well of the acceptor plate, 200 μl of acceptor sink buffer (pION) was added. The acceptor filter plate was then carefully placed on top of the donor plate to form a sandwich. The sandwich was incubated at 25° C. for 4 h without stirring. UV-vis spectra of the solutions in the blank, reference, acceptor and donor plates were measured using a microplate reader (Tecan Infinite 200PRO M Nano Plus). Permeability values were calculated using the PAMPA explorer software v.

Turning to `CCN(C)Cc1c(Cc2cccc(NS(=O)(=O)NC)c2F)c(=O)oc2cc(OC(=O)N(C)C)c(F)cc12` [Compound 238], the half-life at 2 μM worked out at 1.19 h in series [1]; 23.2 h in [2] (pH 7.4); 29.8 h in series [3]; 2.67 h in series [4]; 2.48 h in series [5]; 68.6 h in [6] (pH 7.4). Further, the half-life at 2 μM is above 2 h in [7] and 0.943 h in series [8]. For the same molecule, the CLint scaled at 2 μM in series [1] (setting [9]) was 6.28 L/h/kg; in series [1] (read-out: CLint (mL/min/kg)), 6.3 L/h/kg; in series [5] (setting [9]) it was 6.57 L/h/kg; in series [5] (read-out: CLint (mL/min/kg)) it was 6.6 L/h/kg; in [8] (setting [9]), 3.97 L/h/kg; in [8] (read-out: CLint (mL/min/kg)) it was 3.97 L/h/kg. Moreover, the “% Remaining at T120” value turned out to be 93.8% in series [2]; 95.5% in series [3]; 57.5% in [4]; 95.7% in [6]; 101.1% in series [7]. The molecule also returned a Papp at 4 h, 50 μM in “PAMPA (pH 7.4)” (pH = 7.4 (Table 14)) of 62 ×10⁻⁶ cm/s. Also, the “% Remaining At T120” value in the series with human hepatocytes worked out at 27.3%.

As to `CCN(C)Cc1c(Cc2cccc(NS(=O)(=O)NC)c2Cl)c(=O)oc2cc(OC(=O)N(C)C)ccc12` [Compound 245, 3-(2-chloro-3-((N-methylsulfamoyl)amino)benzyl)-4-((ethyl(methyl)amino)methyl)-2-oxo-2H-chromen-7-yl dimethylcarbamate], the half-life at 2 μM in series [1] is 0.953 h; in series [2] (pH 7.4) it was above 2 h; in series [3], 32.2 h; in series [4], 7.98 h; in series [5], 2.17 h; in [6] (pH 7.4), above 2 h. Also, the figures for the half-life at 2 μM in series [7] and in series [8] were 23 h and 0.748 h, respectively. For the same molecule, the CLint scaled at 2 μM is 7.81 L/h/kg in [1] (setting [9]); 7.8 L/h/kg in [1] (read-out: CLint (mL/min/kg)); 7.54 L/h/kg in series [5] (setting [9]); 7.56 L/h/kg in series [5] (read-out: CLint (mL/min/kg)); 5 L/h/kg in series [8] (setting [9]); 5 L/h/kg in series [8] (read-out: CLint (mL/min/kg)). In addition, at CYP3A4, the “CYP-3A4 (Midazolam) mean percentage CYP inhibition” value was 42.3%. Also, on CYP3A4, the “CYP-3A4 (Testosterone) mean percentage CYP inhibition” value is reported as 72.8%. Also, the “% Remaining at T120” value came to 104.1% in [2]; 96.6% in series [3]; 81.9% in [4]; 106.8% in series [6]; 96.5% in series [7]. The molecule also gave a Papp at 4 h, 50 μM in “PAMPA (pH 7.4)” (pH = 7.4 (Table 14)) of 53 ×10⁻⁶ cm/s. In addition, in the series on human hepatocytes, the “% Remaining At T120” value stood at 13.9%.

Take `CNS(=O)(=O)Nc1cccc(Cc2c(CN3CCNCC3)c3ccc(OC(=O)N(C)C)cc3oc2=O)c1Cl` [Compound 246, 3-(2-chloro-3-((N-methylsulfamoyl)amino)benzyl)-2-oxo-4-(piperazin-1-ylmethyl)-2H-chromen-7-yl dimethylcarbamate hydrochloride]: the half-life at 2 μM is 6.07 h in series [1]; 60.5 h in series [2] (pH 7.4); above 2 h in [3]; 18.5 h in series [4]; 4.53 h in series [5]; above 2 h in [6] (pH 7.4). In addition, the half-life at 2 μM is above 2 h in series [7] and 3 h in [8]. Also, the CLint scaled at 2 μM in [1] (setting [9]) is 1.23 L/h/kg; in [1] (read-out: CLint (mL/min/kg)) it was 1.23 L/h/kg; in series [5] (setting [9]), 3.62 L/h/kg; in series [5] (read-out: CLint (mL/min/kg)) it was 3.62 L/h/kg; in series [8] (setting [9]), 1.25 L/h/kg; in [8] (read-out: CLint (mL/min/kg)) it was 1.25 L/h/kg. Besides, the “CYP-3A4 (Testosterone) mean percentage CYP inhibition” value at CYP3A4 is 24.6%. Also, the “% Remaining at T120” value in [2] is 100.2%; in series [3], 99.3%; in series [4], 94.5%; in series [6], 105.7%; in [7], 104.5%. For the same molecule, the Papp at 4 h, 50 μM in “PAMPA (pH 7.4)” (pH = 7.4 (Table 14)) came to 2 ×10⁻⁶ cm/s. Moreover, the “% Remaining At T120” value in the series with human hepatocytes was found to be 95.3%.

With `CNS(=O)(=O)Nc1cccc(Cc2c(CN(C)C)c3ccc(OC(=O)N(C)C)cc3oc2=O)c1Cl` [Compound 274, 3-(2-chloro-3-((N-methylsulfamoyl)amino)benzyl)-4-((dimethylamino)methyl)-2-oxo-2H-chromen-7-yl dimethylcarbamate], the half-life at 2 μM in series [1] was 2.12 h; in series [2] (pH 7.4), above 2 h; in [3], 42.3 h; in series [4], 126 h; in [5], 3.13 h; in series [6] (pH 7.4) it was above 2 h. Moreover, the half-life at 2 μM was above 2 h in series [7] and 1.32 h in series [8]. Further, the CLint scaled at 2 μM in series [1] (setting [9]) is 3.52 L/h/kg; in [1] (read-out: CLint (mL/min/kg)) it was 3.52 L/h/kg; in [5] (setting [9]), 5.23 L/h/kg; in series [5] (read-out: CLint (mL/min/kg)), 5.23 L/h/kg; in [8] (setting [9]), 2.84 L/h/kg; in series [8] (read-out: CLint (mL/min/kg)) it was 2.84 L/h/kg. At CYP3A4, the “CYP-3A4 (Midazolam) mean percentage CYP inhibition” value is given as 20.1%. For the same molecule, the “CYP-3A4 (Testosterone) mean percentage CYP inhibition” value on CYP3A4 came out at 50.4%. In addition, the “% Remaining at T120” value in [2] is listed as 100.5%; in series [3] it was 97.7%; in series [4], 92.7%; in series [6] it was 121.2%; in series [7], 104.5%. In addition, the “% Remaining At T120” value in the series on human hepatocytes came to 47.5%.

On to `Cn1cnc2c(F)c(Nc3ccc(Br)cc3Cl)c(C(=O)NOCCO)cc21` [Reference-1, Selumetinib], for which the “Beagle Dog (% Reamining @2 hour)” value in series [2] (beagle, dog, 2 h, pH 7.4) was determined as 100.4%. In “PAMPA (pH 7.4)” (pH = 7.4), this molecule showed a Papp at 4 h, 50 μM of 29 ×10⁻⁶ cm/s. Further, the “Human (% Reamining @2 hour)” value in [6] (human, 2 h, pH 7.4) was found to be 98.1%.

With `CNS(=O)(=O)Nc1nccc(Cc2c(C)c3ccc(Oc4ncccn4)cc3oc2=O)c1F` [Reference-2, reference compound], the “Beagle Dog (% Reamining @2 hour)” value in series [2] (plasma, 2 hour) came to 99.8%. The molecule further returned a Papp at 4 h, 50 μM in “PAMPA (pH 7.4)” (pH = 7.4) of 29 ×10⁻⁶ cm/s. For the same molecule, the “Human (% Reamining @2 hour)” value in series [6] (plasma, 2 hour) was 91.1%.
